The series is described as follows: Human HepG2 cell viability assay in 384 well format. It is filed as toxicity, cell-based. Set-up: dose 125 nL, time 70.5 hour; concentration not given beside the values. The conditions noted are these: HepG2 cells, read-out: Inhibition.

Experimental findings from ChEMBL document CHEMBL3507680, “University of Dundee, Gates Library screen for HepG2 cell viability” are described below.

Turning to `Cc1csc(CNC(=O)Nc2cc(C(F)(F)F)c[nH]c2=O)n1`, the cytotoxicity at 70.5 h was -5.01%. The figure for `CCCN1CCC(NC(=O)c2ccc(F)cc2I)CC1` is -6.74%; for `Cc1nn(C)c(N2CCOCC2)c1CNC(C)c1ccco1` (stereo not given) it is 10.7%; for `O=C(Nc1cccc(CN2CCOC2=O)c1)N1CCOCC1` it is -3.32%. The figure for `Cc1nc(-c2ccsc2)ccc1C(=O)O` is -4.19%. As to `Cc1cnn(CC(C)NCc2nc(-c3ccco3)no2)c1` (stereo not given), the cytotoxicity at 70.5 h is 2.25%. The result for `Cc1nc(C)n(CC2CCCCN2CC(=O)Nc2cccnc2)n1` (stereo not given) reads -0.493%; that for `O=C1CCCCN1Cc1cccc(NC(=O)N2CCSCC2)c1`, -6.83%; that for `CC(C)(C(=O)NCC(N)=O)c1ccccc1F`, -5.2%. As for `COc1ccc(CNCCc2cc(F)cc3c2OCOC3)cc1O`, the cytotoxicity at 70.5 h was 2.79%. The result for `Cc1nc(C)n(CC2CN(CC(=O)Nc3nccs3)CCO2)n1` (stereo not given) reads -3.11%. The result for `CCOc1ncccc1NC(=O)c1cc(C)c(C)s1` reads -7.38%. The result for `COC(=O)CS(=O)(=O)CCC(=O)N1CCCC1c1ccsc1` (stereo not given) reads -2.16%. As to `c1ccc(C2CCCN2Cc2nnnn2C2CC2)cc1` (stereo not given), the cytotoxicity at 70.5 h was -2.74%.

Regarding `CCc1ncncc1C(=O)NCCN1CCC(C)CC1`, the cytotoxicity at 70.5 h is -4.63%.

On to `Cc1noc(C)c1CN1CCC2(CC1)NC(=O)CC2c1ccncc1` (stereo not given), for which the cytotoxicity at 70.5 h was -9.41%. The result for `Cn1cc(-c2nnn3c2COC(CNCC2CCOCC2)C3)cn1` (stereo not given) reads -7.48%; that for `O=C(c1ccncc1)N1CCN2C[C@H](Oc3cccnc3)C[C@H]2C1`, 2.63%; that for `CC(C)NC(=O)c1ccc2nnc(C3CCN(S(C)(=O)=O)C3)n2c1` (stereo not given), -0.738%. The figure for `Cc1occc1C(=O)N1CCN2C[C@H](Oc3cccnc3)C[C@H]2C1` is 0.855%; for `Cn1nc(CN2CCCCC2)c2c1CN(C(=O)c1ccoc1)C2` it is 16.5%; for `O=C1COC2(CCN(c3ccccn3)CC2)CN1Cc1ccccn1` it is 17.6%.

For `Cc1ccc(C(=O)N2C[C@H](OCC3CCOCC3)[C@H]3OCCC[C@H]32)o1`, the cytotoxicity at 70.5 h is 0.644%. The figure for `COC[C@H]1CC[C@H]2[C@H](CCN2S(=O)(=O)c2ccccc2)O1` is 5.05%; for `O=C(c1ccnnc1)N1C[C@H](OCC2CCOCC2)[C@H]2OCCC[C@H]21` it is 0.563%.

For `CCOC[C@@H]1CC[C@H]2[C@H](CCN2S(=O)(=O)c2ccc(F)cc2)O1`, the cytotoxicity at 70.5 h is -6.92%. The figure for `Cc1ccc(CN2CCCn3c(nc(Cn4ccnc4)cc3=O)C2)s1` is 8.11%. The figure for `Cc1ccc(C(=O)N2CCO[C@H]3[C@H](OCC4CCOCC4)CC[C@@H]32)o1` is 11.2%. The result for `Cc1ccoc1C(=O)N1C[C@@H](OCC2CCOCC2)[C@H]2OCCC[C@H]21` reads 8.35%; that for `Cc1ccc(N2CCC3(CCN(C(=O)c4ccsc4)CC3)CC2)nn1`, -7.09%. With `Cc1ccc(C(=O)N2C[C@@H](OCc3cccnc3)[C@H]3OCCC[C@H]32)o1`, the cytotoxicity at 70.5 h is 3.45%. With `COCC1CN(Cc2ccncc2)Cc2nn(C)cc21` (stereo not given), the cytotoxicity at 70.5 h worked out at 30.7%. In the case of `O=S(=O)(c1ccccc1)N1CCC[C@]2(C[C@@H](OCC3CC3)CO2)C1`, the cytotoxicity at 70.5 h stood at 9.43%. In the case of `Cn1cc(CN2CCC3(CCCCN3S(C)(=O)=O)CC2)cn1`, the cytotoxicity at 70.5 h was -11.7%. The figure for `Cc1nn(C)c2nc(N3CCC(C(O)c4nccn4C)CC3)sc12` (stereo not given) is -11.6%. The result for `O=C(O)C(c1ccc2c(c1)OCO2)N1CCC(O)(c2cccnc2)CC1` (stereo not given) reads 0.616%; that for `O=C(c1cccc(C2CCNC2)c1)N1CCC(c2ncc[nH]2)CC1` (stereo not given), -17%.

Regarding `Cc1cc(C)c(-n2cc(CCO)cn2)cc1C`, the cytotoxicity at 70.5 h came to 22.1%. The result for `CCN1Cc2nc(OC)c(CNC(=O)C3CCCN(C)C3)cc2C1=O` (stereo not given) reads -5.45%; that for `CSCCN1CCN(c2nc(N)ncc2C)CC1`, 21.4%; that for `CN(C)Cc1ccccc1CN(C)c1ncnc2[nH]ccc12`, -9.22%. `NC(=O)Cn1ccnc1C1CCCN(Cc2nc3ccccc3s2)C1` (stereo not given): the cytotoxicity at 70.5 h was -7.02%. The figure for `CCC(=O)Nc1ccc(OCC(=O)N(C)C(C)c2ccon2)cc1` (stereo not given) is -18.6%; for `CCn1ccnc1C1CCN(C(=O)Nc2ccc(OC)cc2)CC1` it is 29.5%.

As to `Cc1nc(NCc2coc(-c3ccccc3)n2)cc(C2CCNCC2)n1`, the cytotoxicity at 70.5 h is -2.73%. For the molecule `CCN1CC2(CCN(CCOc3ccc(F)cc3)CC2)CC1=O`, the cytotoxicity at 70.5 h worked out at 12.8%. The figure for `COCCN(Cc1cnn(C)c1)C(=O)C1CCCN(C2CCOCC2)C1` (stereo not given) is -12.6%; for `CCc1ncc(C(=O)N2CCCN(C3CCCCC3)CC2)cn1` it is 10.7%. The result for `CC(C)c1noc(C2CCCN2S(=O)(=O)Cc2ccc(F)cc2)n1` (stereo not given) reads 0.0647%.

Regarding `CN(Cc1ccn[nH]1)C(=O)CCC(=O)NC1CCCC1`, the cytotoxicity at 70.5 h was -9.97%. `Cc1nc(C2CCNCC2)cc(N2CCOc3ccccc3C2)n1`: the cytotoxicity at 70.5 h is -4.26%. The result for `CCCn1cc(C(=O)N2CCCC(c3nccn3CCOC)C2)c(C)n1` (stereo not given) reads 1.39%. With `COCCN(C)C[C@@H]1CN(C(=O)c2ccc(SC)cc2)C[C@@H]1CO`, the cytotoxicity at 70.5 h was 12.6%. The figure for `CC(C)N1CCC(CC(=O)NC(C(=O)O)c2cc(F)ccc2F)CC1` (stereo not given) is -16.6%. Consider `COc1ccccc1OC1CN(C(=O)CN(C)Cc2ccncc2)C1`, for which the cytotoxicity at 70.5 h is -14.2%. The figure for `CSCc1noc(-c2nc3c([nH]2)CCCNC3=O)n1` is -4.67%; for `CN1[C@H]2CC[C@@H]1CN(C(=O)c1nnc3n1CCCC3)CC2` it is 12.6%; for `NC(=O)COc1ccc(CNCc2ccc(F)c(F)c2)cc1` it is 0.155%. The result for `Fc1cccnc1N1CCOCC2(CCCN(c3nncs3)C2)C1` (stereo not given) reads -9.83%.

For the molecule `COCC1CN(Cc2ccoc2)Cc2nnn(C)c21` (stereo not given), the cytotoxicity at 70.5 h is -13.7%. The result for `O=C(NC[C@]12COC[C@H]1CN(Cc1cccs1)C2)c1ccsc1` reads -9.66%. Turning to `CN(C)C[C@]12COC[C@H]1CN(C(=O)CCc1ccccc1)C2`, the cytotoxicity at 70.5 h was -11.8%.

As for `Cc1ccc(C(=O)N2CCC3(CC2)CCN(Cc2ccccn2)C3=O)o1`, the cytotoxicity at 70.5 h worked out at 26.4%. The result for `NC(=O)N1CCC2(CCN(Cc3ccccn3)C2=O)C1` (stereo not given) reads -0.213%. The result for `Cc1ccc(C(=O)N2CCc3c(CN4CCCC4)nn(C)c3C2)cc1C` reads -2.24%.

Regarding `c1coc(CN2CCCn3c(nnc3Cn3cccn3)C2)c1`, the cytotoxicity at 70.5 h worked out at 3.11%.

Turning to `Cc1ccc(C(=O)N2Cc3c(CN4CCCCC4)nn(C)c3C2)cc1F`, the cytotoxicity at 70.5 h was 36.2%. As for `Cc1ccc(C(=O)N2C[C@@H](OCc3cccnc3)[C@H]3OCCC[C@@H]32)o1`, the cytotoxicity at 70.5 h stood at 10.6%. The figure for `c1cnc(N2CCC3(CCN(CC4CCOC4)CC3)C2)nc1` (stereo not given) is -1.96%; for `O=C(CC1CC2(CCN(CC3CC3)CC2)c2ccccc21)NC1CCC1` (stereo not given) it is -2.68%; for `O=C(C1=CCCC1)N1CCC2(CC1)CC(Oc1cccnc1)CO2` (stereo not given) it is -0.424%.

As to `Cc1oncc1C(=O)NCc1cc(=O)n2c(n1)CN(CC(C)C)CCC2`, the cytotoxicity at 70.5 h was found to be 22.7%.

As for `O=C(c1cnccn1)N1CCCC2(CCN(c3ccccn3)C2)C1` (stereo not given), the cytotoxicity at 70.5 h stood at 19.3%.

Regarding `O=C(c1cc[nH]n1)N1CCC2(CC1)CC(Oc1cccnc1)CO2` (stereo not given), the cytotoxicity at 70.5 h is 8.68%. For the molecule `CCN1CCCn2c(nc(CNC(=O)c3cnoc3C)cc2=O)C1`, the cytotoxicity at 70.5 h came out at 5.12%. Take `Cc1ccc(N2CCC3(CCN(C(=O)N(C)C)CC3)CC2)nn1`: the cytotoxicity at 70.5 h stood at 11.4%. The figure for `Cc1noc(C)c1CN1CCO[C@H]2CN(C(=O)N3CCCC3)C[C@H]21` is 0.539%; for `c1cnc(N2CCC3(CCCN(CC4CC4)C3)CC2)nc1` it is -6.6%. With `CCS(=O)(=O)N1CC[C@H]2CO[C@H](CN(C)C)[C@H]2C1`, the cytotoxicity at 70.5 h was determined as 9.44%. With `O=C(NCc1ccco1)[C@@H]1CCO[C@@H]2CCN(c3ncccn3)C[C@@H]21`, the cytotoxicity at 70.5 h came to 9.24%. As for `Cn1cc(CN2CCCC3(CCCCN3S(C)(=O)=O)C2)cn1` (stereo not given), the cytotoxicity at 70.5 h was -9.02%. The figure for `O=C(NCc1ccco1)[C@@H]1CCO[C@@H]2CCN(c3ncccn3)C[C@H]21` is -3.72%; for `CN1CC(=O)N(c2ccsc2)CC12CCN(C(=O)Nc1ccccc1)C2` (stereo not given) it is -4.43%. The figure for `O=C(Nc1cccnc1)[C@H]1C[C@H]2OCC[C@H]2N(Cc2ccc(F)cc2)C1` is -10%. The figure for `Cc1cccc(CN2C[C@@H]3COC[C@]3(CNC(=O)c3ccccc3)C2)n1` is -12.2%; for `Cc1cccc(CN2C[C@@H]3COC[C@]3(CNC(=O)c3cccn3C)C2)n1` it is 19.6%; for `Cn1cc(CN2CCC3(CC2)NC(=O)CC3c2ccncc2)cn1` (stereo not given) it is 12.2%. Turning to `Cc1cncc(C(=O)N2C[C@H]3CCC[C@@]3(COc3ccccn3)C2)c1`, the cytotoxicity at 70.5 h is 7.93%.

Consider `COc1cc(N2CCO[C@H]3[C@@H](Oc4cccnc4)CC[C@@H]32)ncn1`, for which the cytotoxicity at 70.5 h is 26.1%.

In the case of `c1cnn(Cc2nnc3n2CCCN(Cc2ccsc2)C3)c1`, the cytotoxicity at 70.5 h stood at 4.58%.

`Cc1ccc(O[C@@H]2C[C@H]3CN(C(=O)c4cccnc4)CCN3C2)cc1`: the cytotoxicity at 70.5 h came to 9.15%. The result for `O=C(CCc1cccnc1)N1CCC2(CCN(CC3CCCC3)C2)C1` (stereo not given) reads 23.3%; that for `Cc1cc(CN2CCO[C@H]3[C@H](OCc4csc(C)n4)CC[C@@H]32)no1`, 2.95%.

In the case of `CN1CC(=O)N(c2cccc(F)c2)CC12CCN(CC1CC1)C2` (stereo not given), the cytotoxicity at 70.5 h was -3.68%. The result for `CN1CC(=O)N(c2ccccc2)CC12CCN(CCO)C2` (stereo not given) reads 6.4%.
